# Laboratory results taken from BindingDB's records for doi:10.7270/Q20000JS (Johns Hopkins Ion Channel Center, 2010).
# Molecular target: Potassium voltage-gated channel subfamily KQT member 2 (Rattus norvegicus, UniProt O88943)
# Assay: potentiation of rat KCNQ2 current – cell-based, automated electrophysiology, mechanism study for KCNQ2 potentiator project, dose response (AID 2603)
# Potassium voltage-gated channel subfamily KQT member 2, sequence (O88943 whole entry): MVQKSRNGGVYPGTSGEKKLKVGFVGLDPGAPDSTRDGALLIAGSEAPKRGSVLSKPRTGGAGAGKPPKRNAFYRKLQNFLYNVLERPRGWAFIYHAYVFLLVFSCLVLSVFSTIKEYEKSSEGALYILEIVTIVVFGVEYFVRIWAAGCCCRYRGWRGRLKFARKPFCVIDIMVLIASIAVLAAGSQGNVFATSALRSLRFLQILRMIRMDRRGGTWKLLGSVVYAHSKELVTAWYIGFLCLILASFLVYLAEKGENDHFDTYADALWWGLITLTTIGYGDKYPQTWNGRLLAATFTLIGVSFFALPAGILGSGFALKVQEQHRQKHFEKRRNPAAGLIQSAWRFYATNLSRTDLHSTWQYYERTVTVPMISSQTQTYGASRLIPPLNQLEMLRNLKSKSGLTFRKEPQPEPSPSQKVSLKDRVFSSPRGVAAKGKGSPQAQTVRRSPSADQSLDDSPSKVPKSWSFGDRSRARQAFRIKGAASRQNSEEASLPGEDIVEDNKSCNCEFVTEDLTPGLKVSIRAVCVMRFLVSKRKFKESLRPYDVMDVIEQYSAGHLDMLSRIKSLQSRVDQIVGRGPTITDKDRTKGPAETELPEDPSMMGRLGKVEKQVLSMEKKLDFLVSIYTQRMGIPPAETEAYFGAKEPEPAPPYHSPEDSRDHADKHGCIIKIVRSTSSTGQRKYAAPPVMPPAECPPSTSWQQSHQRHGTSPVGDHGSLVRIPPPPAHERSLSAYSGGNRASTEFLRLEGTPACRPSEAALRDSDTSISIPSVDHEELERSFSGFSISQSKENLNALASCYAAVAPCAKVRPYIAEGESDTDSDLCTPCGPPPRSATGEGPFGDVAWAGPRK
row,Structure (SMILES),EC50 [µM]
1,CC(C)N1C(=O)C(=NNc2ccc(Cl)c(C(=O)O)c2)c2ccccc21 [MLS000773916],3.7
2,CC1=NC(=O)NC(c2cccc(O)c2)C1C(=O)OC1CCCCCCC1 (configuration not stated) [SMR000111748],537
